According to publication PMC3816707, “Diamidines versus Monoamidines as Anti-Pneumocystis Agents: An in vivo Study” (Pharmaceuticals, 2013):
Structures can show the parent of a compound that is named as a salt.

Assays:
Pneumocystis carinii [1] = assay: In vitro anti-Pneumocystis activity, P. carinii axenic short culture (4 days); type: cell-based; conditions: for inhibition of growth at 50 µg/mL / inhibition of growth at 0.1 µg/mL / inhibition of growth at 10 µg/mL / EC50: Pneumocystis carinii, 96 h; for inhibition of growth at 50 µg/mL / Anti-Pneumocystis activity % inhibition vs. free-drug control at 0.1 µg/mL / Anti-Pneumocystis activity % inhibition vs. free-drug control at 10 µg/mL / Anti-Pneumocystis activity % inhibition vs. free-drug control at 50 µg/mL: 4 days axenic culture; for inhibition of growth at 50 µg/mL: read-out: Anti-Pneumocystis activity % inhibition vs. free-drug control at 50 µg/mL; for inhibition of growth at 0.1 µg/mL: read-out: Anti-Pneumocystis activity % inhibition vs. free-drug control at 0.1 µg/mL, 0.1 µg/mL, 4 days axenic culture; for inhibition of growth at 10 µg/mL: read-out: Anti-Pneumocystis activity % inhibition vs. free-drug control at 10 µg/mL, 10 µg/mL, 4 days axenic culture; for EC50: 150 to 1.35 10^-5 µM, read-out: EC50 against P. carinii
Experimental: Drug stock solutions in DMSO (10 mg/mL) were diluted in Dulbecco's Modified Eagle's Medium (DMEM, BioWhittaker) supplemented with 10% heat-inactivated foetal calf serum (FCS, Gibco-BRL) to produce the required drug concentrations. P. carinii axenic short cultures were performed as follows. All the experiments were carried out in 24-well plates with a final volume of 2 mL of DMEM supplemented with 10% of heat-inactivated fetal calf serum (FCS) containing a final inoculum of 10^6 organisms per mL. Plates were incubated for 4 days in an atmosphere of 5% CO2 at 37 °C. Then, P. carinii organisms were collected and quantified after RAL-555 panoptic staining. In parallel with these free-drug growth control wells, the anti-Pneumocystis effect of pentamidine and the other bisbenzamidines considered in this study was investigated in the same conditions. All molecules have been screened at a high (50 µg/mL), a medium (10 µg/mL), and a low (0.1 µg/mL) concentration. All experiments were performed in triplicate and data were statistically processed using Student’s t-test. Two-sided p-values < 0.05 were deemed to be statistically significant.
The parameters of this pharmacodynamic model were calculated by nonlinear least-squares regression techniques using commercial software (Sigma Plot, Systat Software Inc., San Jose, CA, USA).

Pneumocystis carinii [2] = assay: In vivo anti-Pneumocystis activity, P. carinii pneumonia in nude rats; parameters: species or system athymic Lou nu/nu rats; conditions: for % of inhibition versus control rats: once a day for 10 days, P. carinii count in lung homogenates; for In vivo anti-Pneumocystis activity: subcutaneous, 5 and 20 mg/kg/day, 10 days
Experimental: To evaluate the in vivo anti-Pneumocystis activity, drug stock solutions in DMSO (300 mg/mL) were diluted in phosphate buffered saline (PBS, BioWhittaker) to produce the required final drug concentrations just before subcutaneous injection. Seven weeks p.i., animals were divided into groups of 4, and then pentamidine and derivatives 4 and 6 were dosed at 5 or 20 mg/kg by subcutaneous route. The drugs were given once a day for 10 consecutive days. The final concentration of DMSO in diluted drug solutions was maintained between 1.5% and 6%. Control animals received doses of 6%-DMSO in sterile water. Twenty-four hours after the end of the treatment, animals were euthanatized and the lung homogenised in a Stomacher-400 blender as previously described. Quantitation of trophic forms, sporocytes, and cysts was performed on air-dried smears stained with RAL-555 stain [34, 37, 38]. Therapeutic efficacy was assessed by counting P. carinii parasites in lung homogenates and comparing them with those of the untreated controls at the end of the experiment. The results were expressed as percentage of inhibition versus drug-free animal controls and presented as mean and standard error. Data were analyzed using a two-way analysis of variance (PROC MIXED, SAS Institute, Cary, NC, USA), with sex, drug, and their interaction as independent predictors. Due to heterogeneity in parasites count distributions, the first step of the analysis was the selection of the within-subject covariance, based either on likelihood ratio tests or on the Bayesian Information Criterion. Then, tests of the fixed effects were performed. No interaction was found between sex and drug. Therapeutic efficacy was assessed with polynomial contrasts. Regression underlying assumptions were visually inspected with residual plots. Statistical significance was set at α = 0.05.
An in vivo experiment was performed in order to explore whether it reflected in vitro results. The used in vivo model was the athymic Pneumocystis-free Lou nu/nu rats non-surgically inoculated by endo-tracheal route with a suspension of P. carinii organisms. […] Rats developed high infection levels 6–8 weeks post inoculation without secondary fungal or bacterial infection. […] Thus animals were endotracheally infected after 2 weeks of dexamethasone administration (1 mg/L, drinking water) with 10^7 P. carinii organisms. Drugs were administered once a day by subcutaneous route for 10 consecutive days. Untreated animals developed extensive infections at the end of the treatment period. The number of total P. carinii organisms per lung in DMSO control rats was 1.26 ± 0.20 × 10^10. […] On the other hand, whereas showing a strong anti-Pneumocystis activity in vitro, the monoamidine 7 appeared to be poorly potent when administered subcutaneously to Pneumocystis-infected rats, even at the dose of 20 mg/kg/day.

[3] = In vitro cytotoxicity, MTT-based cell viability assay; parameters: species or system murine; conditions: mouse, 3T6 embryonal fibroblast cells (adherent); 3T6 murine embryonal fibroblast cell line, MTT, triplicate, mean
Experimental: (§1) In vitro cytotoxicity assays with established cell lines are useful tools for the general screening of chemicals in toxicological studies. […] The procedure, according to the manufacturer recommendations, was based on the colorimetric determination of the succinate dehydrogenase activity by visualization (540 nm) of the conversion of a tetrazolium salt into formazan. With a microplate reader (Thermo Labsystems Multiskan Ascent 354, Waltham, MA, USA), the optical density of each well was measured at 540 nm against the background absorbance whose reference filter was set at 690 nm. Blank controls (culture medium), free-drug controls, and solvent (DMSO) controls were included in each assay. All cytotoxicity assays were set up in triplicate. […] The IC50 parameters were obtained by plotting % inhibition values against the logarithm of concentration for each compound.
(§2) For each compound, the % inhibition of activity against the concentration scale was plotted. The 50% inhibiting concentrations of cell proliferation (IC50) were calculated by locating the x-axis values corresponding to one-half of the absorbance values. The experiments were repeated in triplicate for each substance.

[4] = Visual observations of treated rats (behavior, injection site); type: in vivo, rat; conditions: for Cutaneous reaction at the site of injections: subcutaneous treatment, data not shown
3T6 fibroblast cell line = assay: In vitro cytotoxicity, MTT-based cell viability assay; parameters: species or system murine; conditions: for Cytotoxicity: 3T6 cell line; for IC50 fold higher than for the reference compound (pentamidine): 3T6 cytotoxicity
Experimental: as §1, §2

[5] = parameters: method as in PMID 21147326; conditions: in comparison with pentamidine and the diamidine 6; cited from earlier work
[6] = Hill equation, 4 days of culture

Compound | melting point [°C] | Slope S (steepness of the concentration-effect curve) (Pneumocystis carinii [1]; [6]) | inhibition of growth at 50 µg/mL (Pneumocystis carinii [1]) [%] | inhibition of growth at 0.1 µg/mL (Pneumocystis carinii [1]) [%] | inhibition of growth at 10 µg/mL (Pneumocystis carinii [1]) [%] | EC50 (Pneumocystis carinii [1]; [6]) [µM] | % of inhibition versus control rats (Pneumocystis carinii [2]; 5 mg/kg/day subcutaneous) [%] | % of inhibition versus control rats (Pneumocystis carinii [2]; 20 mg/kg/day subcutaneous) [%] | IC50 [3] [µM] | Anti-Pneumocystis activity % inhibition vs. free-drug control at 0.1 µg/mL (Pneumocystis carinii [1]) | Cytotoxicity (3T6 fibroblast cell line) | also measured
CN(CCNc1ccccc1)c1ccc(C(=N)N)cc1 (as salt: hydrochloride) [Compound 9, N-(Benzamidine-4-yl)-N-methyl-N′-phenylethane-1,2-diamine hydrochloride salt] | 212 to 215 |  |  |  |  |  |  |  |  |  |  | 
N=C(N)c1ccc(NCCNc2ccccc2)cc1 (as salt: sulfate) [Compound 7, N-(Benzamidine-4-yl)-N′-phenylethane-1,2-diamine sulfate salt] | 191 to 193 |  |  |  |  |  |  |  |  |  |  | 
N=C(N)c1ccc(OCCCCCOc2ccc(C(=N)N)cc2)cc1 [Compound 1, pentamidine, reference compound] |  | 1.09 ± 0.23 | 99 ± 0.1 | 89 | 99 ± 0.1 | 0.08 ± 0.01 | 84.6 | 95.3 | 1.98 ± 0.2 |  |  | Cutaneous reaction at the site of injections [4]: deleterious wounds could be seen on the skin
N=C(N)c1ccc(N2CCN(c3ccccc3)CC2)cc1 [Compound 3] |  |  | 99 ± 0.1 | 8.3 ± 14.4 | 99 ± 0.1 |  |  |  | 56.06 ± 0.39 |  |  | 
Nc1ccc(N2CCN(c3ccc(N)cc3)CC2)cc1 [Compound 4] |  |  |  |  |  |  |  |  | 40.8 ± 4.4 | inactive |  | Anti-Pneumocystis activity % inhibition vs. free-drug control at 10 µg/mL (Pneumocystis carinii [1]): inactive; Anti-Pneumocystis activity % inhibition vs. free-drug control at 50 µg/mL (Pneumocystis carinii [1]): inactive
Nc1ccc(N2CCN(c3ccccc3)CC2)cc1 [Compound 5, 1-(4-Aminophenyl)-4-phenylpiperazine] | 146 to 149 |  |  |  |  |  |  |  | 10.2 ± 0.6 | inactive |  | Anti-Pneumocystis activity % inhibition vs. free-drug control at 10 µg/mL (Pneumocystis carinii [1]): inactive; Anti-Pneumocystis activity % inhibition vs. free-drug control at 50 µg/mL (Pneumocystis carinii [1]): inactive
N=C(N)c1ccc(NCCNc2ccc(C(=N)N)cc2)cc1 [Compound 6, N,N′-bis(benzamidine-4-yl)ethane-1,2-diamine] |  | 1.49 ± 0.31 | 98.7 ± 0.6 | 29.8 ± 19.7 | 97.7 ± 0.6 | 0.6 ± 0.12 | 78.4 | 86.2 | 30.2 ± 1.14 |  | no cytotoxicity | In vivo anti-Pneumocystis activity (Pneumocystis carinii [2]): strong anti-Pneumocystis activity comparable to that of pentamidine at both doses; IC50 fold higher than for the reference compound (pentamidine) (3T6 fibroblast cell line): 15 fold; Cutaneous reaction at the site of injections [4]: did not develop any cutaneous reaction; Behavior during the treatment ([4]; visual observations): quite normal behavior
N=C(N)c1ccc(NCCNc2ccccc2)cc1 [Compound 7, N-(Benzamidine-4-yl)-N′-phenylethane-1,2-diamine sulfate salt] |  | 2.00 ± 0.54 | 99.5 ± 0.4 | 42 ± 12.5 | 98.7 ± 0.6 | 0.4 ± 0.08 | 43.1 | 54.3 | 40.6 ± 1.3 |  | no cytotoxicity | Emax (Pneumocystis carinii [1]; Hill equation, maximum effect, 4 days of culture): 99.37 ± 2.54%; In vivo anti-Pneumocystis activity (Pneumocystis carinii [2]): poorly potent; IC50 fold higher than for the reference compound (pentamidine) (3T6 fibroblast cell line): 20 fold; Elimination from plasma [5]: more rapidly eliminated from plasma
CN(CCNc1ccc(C(=N)N)cc1)c1ccc(C(=N)N)cc1 [Compound 8] |  |  | 99 | 15 ± 12.5 | 99 |  |  |  | 2.48 ± 0.35 |  | cytotoxicity similar to that of pentamidine | 
CN(CCNc1ccccc1)c1ccc(C(=N)N)cc1 [Compound 9, N-(Benzamidine-4-yl)-N-methyl-N′-phenylethane-1,2-diamine hydrochloride salt] |  |  | 88.7 ± 2.5 |  | 86.3 ± 4 |  |  |  | 3.11 ± 0.09 | inactive | cytotoxicity similar to that of pentamidine | 
